How the values were obtained:
Ba/F3 ERBB2 YVMA = Ba/F3 ERBB2 YVMA (Homo sapiens, UniProt P04626, DUP772-775, cells depend on it); test: Cell viability assay (CellTiter Glo), Ba/F3 cells engineered to express ERBB2 YVMA; format: cell-based, mouse; conditions: Ba/F3 cells expressing human ERBB2 YVMA mutant, 72 hours, read-out: Ba/F3 ERBB2 YVMA, IC50
In short: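 Ba/F3 cells (IL-3-independent via stable retroviral human ERBB2 YVMA) seeded 3000/well and given compound from about 10 μM to 0.51 nM in three-fold steps, DMSO ≤0.1%, 72 h at 37° C. Viability by CellTiter Glo luminescence, normalized to DMSO and media-only controls. Sigmoidal nonlinear fit.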

[1] = target: T1, phosphorylated EGFR (pEGFR) (Homo sapiens, UniProt P00533); test: Detection of phosphorylated EGFR (pEGFR) by AlphaLISA in EGF-stimulated A431 cells; format: cell-based; conditions: A431 cells (10% FBS), 4 hours incubation, EGF 30 ng/mL for 10 minutes
T1 construct: performed to measure phosphorylated EGFR levels using A431 cells (10% FBS); endogenous in cells; host or cells: A431
T1 sequence (P00533 25-1210): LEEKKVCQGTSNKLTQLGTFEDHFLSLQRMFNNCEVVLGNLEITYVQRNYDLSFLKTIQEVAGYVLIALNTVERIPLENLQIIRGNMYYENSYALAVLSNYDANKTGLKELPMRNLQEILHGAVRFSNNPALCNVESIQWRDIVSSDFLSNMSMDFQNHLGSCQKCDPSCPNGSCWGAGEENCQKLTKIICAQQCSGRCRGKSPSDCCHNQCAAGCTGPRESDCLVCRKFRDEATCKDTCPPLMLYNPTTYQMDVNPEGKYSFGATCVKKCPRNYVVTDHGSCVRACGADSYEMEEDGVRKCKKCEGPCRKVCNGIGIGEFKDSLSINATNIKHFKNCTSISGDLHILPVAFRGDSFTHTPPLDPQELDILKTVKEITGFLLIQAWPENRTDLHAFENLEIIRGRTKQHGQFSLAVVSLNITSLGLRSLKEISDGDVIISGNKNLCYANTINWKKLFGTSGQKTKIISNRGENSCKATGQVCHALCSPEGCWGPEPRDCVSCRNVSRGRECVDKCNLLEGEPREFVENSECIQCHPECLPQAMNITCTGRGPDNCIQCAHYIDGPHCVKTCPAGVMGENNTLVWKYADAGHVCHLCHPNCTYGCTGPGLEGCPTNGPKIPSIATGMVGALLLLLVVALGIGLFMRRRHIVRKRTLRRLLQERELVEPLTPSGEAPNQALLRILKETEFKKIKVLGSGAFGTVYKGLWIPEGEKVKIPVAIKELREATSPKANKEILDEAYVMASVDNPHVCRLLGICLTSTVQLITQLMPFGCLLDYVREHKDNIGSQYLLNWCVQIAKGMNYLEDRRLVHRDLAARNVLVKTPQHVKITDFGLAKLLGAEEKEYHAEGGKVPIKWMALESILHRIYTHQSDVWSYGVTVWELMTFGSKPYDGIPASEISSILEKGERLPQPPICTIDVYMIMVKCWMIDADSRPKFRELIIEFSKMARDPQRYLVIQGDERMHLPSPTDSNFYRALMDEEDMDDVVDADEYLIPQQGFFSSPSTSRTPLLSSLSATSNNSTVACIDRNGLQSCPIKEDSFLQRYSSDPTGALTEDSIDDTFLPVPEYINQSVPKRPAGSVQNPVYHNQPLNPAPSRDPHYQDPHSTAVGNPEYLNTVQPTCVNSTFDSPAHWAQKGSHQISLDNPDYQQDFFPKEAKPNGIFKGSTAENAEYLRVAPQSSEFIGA
In short: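 A431 cells in 10% FBS were preincubated with compound for 4 h at 37 °C, then stimulated with 30 ng/mL EGF for 10 min and lysed. pEGFR read by AlphaLISA. % inhibition normalised to DMSO and staurosporine controls; IC50 from four-parameter curve fit.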

[2] = target: T2, phosphorylated ERBB2 (pERBB2) (Homo sapiens, UniProt P04626); test: Detection of phosphorylated ERBB2 (pERBB2) by ELISA in BT-474 cells; format: cell-based; conditions: four hour incubation
T2 construct: endogenous in cells; host or cells: BT-474
T2 sequence (P04626 23-1255): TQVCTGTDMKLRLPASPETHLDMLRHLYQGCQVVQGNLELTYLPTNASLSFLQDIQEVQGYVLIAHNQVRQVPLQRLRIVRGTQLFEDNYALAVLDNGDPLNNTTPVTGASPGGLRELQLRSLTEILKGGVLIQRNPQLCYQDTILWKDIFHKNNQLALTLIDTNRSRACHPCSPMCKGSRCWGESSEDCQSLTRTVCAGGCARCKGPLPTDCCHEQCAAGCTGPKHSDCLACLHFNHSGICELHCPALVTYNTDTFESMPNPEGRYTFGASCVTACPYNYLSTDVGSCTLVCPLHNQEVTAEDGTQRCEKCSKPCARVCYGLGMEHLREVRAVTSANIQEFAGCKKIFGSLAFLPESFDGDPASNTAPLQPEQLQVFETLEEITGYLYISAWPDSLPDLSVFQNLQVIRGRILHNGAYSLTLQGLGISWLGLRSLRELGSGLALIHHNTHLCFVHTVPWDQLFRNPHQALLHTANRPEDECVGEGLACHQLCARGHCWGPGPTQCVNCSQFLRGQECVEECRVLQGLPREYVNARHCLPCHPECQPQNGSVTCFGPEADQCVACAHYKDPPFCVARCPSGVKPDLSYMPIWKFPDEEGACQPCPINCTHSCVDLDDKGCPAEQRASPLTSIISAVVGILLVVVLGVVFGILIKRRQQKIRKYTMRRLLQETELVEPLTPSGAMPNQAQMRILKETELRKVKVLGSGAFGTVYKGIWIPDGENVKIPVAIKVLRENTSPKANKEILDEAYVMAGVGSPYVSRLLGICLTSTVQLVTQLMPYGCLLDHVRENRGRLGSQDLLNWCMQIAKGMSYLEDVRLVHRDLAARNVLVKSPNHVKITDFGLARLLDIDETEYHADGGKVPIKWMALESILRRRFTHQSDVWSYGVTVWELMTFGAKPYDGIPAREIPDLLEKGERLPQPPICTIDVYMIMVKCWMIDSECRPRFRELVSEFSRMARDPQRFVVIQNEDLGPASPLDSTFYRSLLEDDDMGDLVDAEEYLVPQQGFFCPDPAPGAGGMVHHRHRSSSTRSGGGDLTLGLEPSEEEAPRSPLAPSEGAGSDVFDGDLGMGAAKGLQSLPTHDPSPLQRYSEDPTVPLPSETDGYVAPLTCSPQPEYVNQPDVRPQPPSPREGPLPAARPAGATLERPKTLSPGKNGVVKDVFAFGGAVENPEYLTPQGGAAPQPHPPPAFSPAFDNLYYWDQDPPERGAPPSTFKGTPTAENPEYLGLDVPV
In short: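 BT-474 cells were treated with compounds (fourfold dilutions, 10 μM to 0.01 nM final) for 4 h at 37 °C, then lysed. pERBB2 in lysates was quantified by ELISA with an HRP anti-phosphotyrosine detection antibody and TMB read at 450 nm; % relative activity was normalized to no-cell and 0.1% DMSO controls.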

Sequence of Ba/F3 ERBB2 YVMA (P04626 with tags, fused parts or gaps DUP772-775): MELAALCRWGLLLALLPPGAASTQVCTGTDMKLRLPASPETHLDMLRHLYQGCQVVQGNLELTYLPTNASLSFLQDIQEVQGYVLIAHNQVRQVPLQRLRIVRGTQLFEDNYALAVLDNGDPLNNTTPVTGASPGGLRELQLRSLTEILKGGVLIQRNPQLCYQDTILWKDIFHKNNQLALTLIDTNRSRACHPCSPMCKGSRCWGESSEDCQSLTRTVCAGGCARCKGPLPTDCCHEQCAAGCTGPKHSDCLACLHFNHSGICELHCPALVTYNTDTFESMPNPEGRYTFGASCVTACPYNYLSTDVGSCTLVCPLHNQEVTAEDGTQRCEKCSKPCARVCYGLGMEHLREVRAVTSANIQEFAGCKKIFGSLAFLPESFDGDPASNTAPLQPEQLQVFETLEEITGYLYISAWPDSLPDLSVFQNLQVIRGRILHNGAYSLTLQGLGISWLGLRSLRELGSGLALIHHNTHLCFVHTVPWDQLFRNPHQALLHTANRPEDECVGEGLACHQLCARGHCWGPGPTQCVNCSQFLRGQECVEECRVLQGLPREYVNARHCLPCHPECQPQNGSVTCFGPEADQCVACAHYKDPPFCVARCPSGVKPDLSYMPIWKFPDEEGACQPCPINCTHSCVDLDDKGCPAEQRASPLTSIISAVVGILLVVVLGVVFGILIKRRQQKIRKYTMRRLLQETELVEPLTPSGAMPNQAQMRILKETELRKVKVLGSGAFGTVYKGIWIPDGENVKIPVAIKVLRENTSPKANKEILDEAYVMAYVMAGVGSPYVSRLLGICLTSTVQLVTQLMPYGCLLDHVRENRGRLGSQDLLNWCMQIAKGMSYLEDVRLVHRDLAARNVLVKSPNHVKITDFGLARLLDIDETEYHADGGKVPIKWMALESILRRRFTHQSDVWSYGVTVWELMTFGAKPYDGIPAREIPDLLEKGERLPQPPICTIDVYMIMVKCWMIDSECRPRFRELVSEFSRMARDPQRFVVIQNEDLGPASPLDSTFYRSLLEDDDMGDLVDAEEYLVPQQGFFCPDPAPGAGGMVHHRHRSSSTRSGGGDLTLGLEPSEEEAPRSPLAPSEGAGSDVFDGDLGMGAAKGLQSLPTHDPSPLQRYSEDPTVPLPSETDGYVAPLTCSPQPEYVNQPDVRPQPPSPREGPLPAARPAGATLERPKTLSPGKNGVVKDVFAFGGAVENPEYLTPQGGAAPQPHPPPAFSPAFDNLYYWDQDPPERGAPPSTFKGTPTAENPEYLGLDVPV

Structure (SMILES)	GI50 (Ba/F3 ERBB2 YVMA)	IC50 [1]	IC50 [2]
Cc1cc(Nc2ncnc3ccc4c(c23)O[C@@H]2CCNC[C@@H]2N4C)ccc1Oc1ccc2c(c1)ncn2C [Compound 134, (7aS,11aR)-7-methyl-N-(3-methyl-4-((1-methyl-1H-benzo[d]imidazol-5-yl)oxy)phenyl)-7a,8,9,10,11,11a-hexahydro-7H-pyrido[3′,4′:5,6][1,4]oxazino[2,3-f]quinazolin-1-amine]	> 500 nM	727 nM	113 nM
Cc1cc(Nc2ncnc3ccc4c(c23)OC[C@@H]2CN(C(=O)/C=C/CN(C)C)CCN42)c(F)cc1Oc1ccn2ncnc2c1 [Compound 92, (S,E)-1-(4-((4-([1,2,4]triazolo[1,5-a]pyridin-7-yloxy)-2-fluoro-5-methylphenyl)amino)-6a,7,9,10-tetrahydropyrazino[1′,2′:4,5][1,4]oxazino[2,3-f]quinazolin-8(6H)-yl)-4-(dimethylamino)but-2-en-1-one]	18 nM	2160 nM	20.8 nM
CN(C)C/C=C/C(=O)N1CCN2C[C@@H]1COc1c2ccc2ncnc(Nc3ccc(Oc4ccn5ncnc5c4)c(F)c3)c12 [Compound 76, (E)-1-((3R)-13-((4-([1,2,4]triazolo[1,5-a]pyridin-7-yloxy)-3-fluorophenyl)amino)-2,3,5,6-tetrahydro-4H-3,7-methano[1,4,7]oxadiazonino[2,3-f]quinazolin-4-yl)-4-(dimethylamino)but-2-en-1-one]	5.86 nM	381 nM	5.66 nM
Cc1cc(Nc2ncnc3ccc4c(c23)OC[C@H]2CN4CCN2C(=O)/C=C/C2CN(C)C2)ccc1Oc1ccn2ncnc2c1 [Compound 80, (E)-1-((3R)-13-((4-([1,2,4]triazolo[1,5-a]pyridin-7-yloxy)-3-methylphenyl)amino)-2,3,5,6-tetrahydro-4H-3,7-methano[1,4,7]oxadiazonino[2,3-f]quinazolin-4-yl)-3-(1-methylazetidin-3-yl)prop-2-en-1-one]	77.2 nM	701 nM	22.8 nM
CN(C)C/C=C/C(=O)N1CCN2c3ccc4ncnc(Nc5ccc(Oc6ccn7ncnc7c6)c(F)c5)c4c3OC[C@@H]2C1 [Compound 94, (S,E)-1-(4-((4-([1,2,4]triazolo[1,5-a]pyridin-7-yloxy)-3-fluorophenyl)amino)-6a,7,9,10-tetrahydropyrazino[1′,2′:4,5][1,4]oxazino[2,3-f]quinazolin-8(6H)-yl)-4-(dimethylamino)but-2-en-1-one]	19.9 nM	2160 nM	19.6 nM
C=CC(=O)N1CCN2c3nc4c(Nc5ccc(Oc6ccn7ncnc7c6)c(C)c5)ncnc4cc3OC[C@@H]2C1 [Compound 1, (S)-1-(11-((4-([1,2,4]triazolo[1,5-a]pyridin-7-yloxy)-3-methylphenyl)amino)-1,2,4a,5-tetrahydropyrazino[1,2-d]pyrimido[4′,5′:5,6]pyrido[3,2-b][1,4]oxazin-3(4H)-yl)prop-2-en-1-one]	1.6 nM	84.7 nM	5.77 nM
Cc1cc(Nc2ncnc3cnc4c(c23)O[C@H]2CCNC[C@H]2N4C)ccc1Oc1ccc2c(c1)ncn2C [Compound 132, (7aR,11aS)-7-methyl-N-(3-methyl-4-((1-methyl-1H-benzo[d]imidazol-5-yl)oxy)phenyl)-7a,8,9,10,11,11a-hexahydro-7H-pyrido[4,3-b]pyrimido[5′,4′:4,5]pyrido[2,3-e][1,4]oxazin-1-amine]	> 500 nM	> 10000 nM	307 nM
Cc1cc(Nc2ncnc3ccc4c(c23)OC[C@H]2CN4CCN2C(=O)/C=C/[C@@H](C)N(C)C)ccc1Oc1ccn2ncnc2c1 [Compound 88, (4R,E)-1-((3R)-13-((4-([1,2,4]triazolo[1,5-a]pyridin-7-yloxy)-3-methylphenyl)amino)-2,3,5,6-tetrahydro-4H-3,7-methano[1,4,7]oxadiazonino[2,3-f]quinazolin-4-yl)-4-(dimethylamino)pent-2-en-1-one formic acid]	60.3 nM	2820 nM	44.3 nM
Cc1cc(Nc2ncnc3cc4c(cc23)N2CCOC[C@H]2CO4)ccc1Oc1ccc2c(c1)ncn2C [Compound 121, (S)—N-(3-methyl-4-((1-methyl-1H-benzo[d]imidazol-5-yl)oxy)phenyl)-1,2,4a,5-tetrahydro-4H-[1,4]oxazino[4′,3′:4,5][1,4]oxazino[3,2-g]quinazolin-11-amine]	71 nM	> 10000 nM	27.2 nM
Cc1c(Oc2ccn3ncnc3c2)ccc(Nc2ncnc3ccc4c(c23)OC[C@@H]2CN(C(=O)/C=C/CN(C)C)CCN42)c1F [Compound 93, (S,E)-1-(4-((4-([1,2,4]triazolo[1,5-a]pyridin-7-yloxy)-2-fluoro-3-methylphenyl)amino)-6a,7,9,10-tetrahydropyrazino[1′,2′:4,5][1,4]oxazino[2,3-f]quinazolin-8(6H)-yl)-4-(dimethylamino)but-2-en-1-one]	7.75 nM	308 nM	18.1 nM
Cc1cc(Nc2ncnc3cc4c(nc23)N2CCN(C(=O)/C=C/CN(C)C)C[C@@H]2CO4)ccc1Oc1ccn2ncnc2c1 [Compound 15, (R,E)-1-(11-((4-([1,2,4]triazolo[1,5-a]pyridin-7-yloxy)-3-methylphenyl)amino)-1,2,4a,5-tetrahydropyrazino[1,2-d]pyrimido[4′,5′:5,6]pyrido[3,2-b][1,4]oxazin-3(4H)-yl)-4-(dimethylamino)but-2-en-1-one]	4.89 nM	284 nM	6.93 nM
C=CC(=O)N1CCN2C[C@@H]1COc1c2ccc2ncnc(Nc3ccc(Oc4ccn5ncnc5c4)c(C)c3)c12 [Compound 25, 1-((3R)-13-((4-([1,2,4]triazolo[1,5-a]pyridin-7-yloxy)-3-methylphenyl)amino)-2,3,5,6-tetrahydro-4H-3,7-methano[1,4,7]oxadiazonino[2,3-f]quinazolin-4-yl)prop-2-en-1-one]	15.5 nM	1580 nM	11.5 nM
Cc1cc(Nc2ncnc3ccc4c(c23)OC[C@@H]2CN4CCN2C(=O)/C=C/CN(C)C)ccc1Oc1ccc2c(c1)ncn2C [Compound 30, (E)-4-(dimethylamino)-1-((3S)-13-((3-methyl-4-((1-methyl-1H-benzo[d]imidazol-5-yl)oxy)phenyl)amino)-2,3,5,6-tetrahydro-4H-3,7-methano[1,4,7]oxadiazonino[2,3-f]quinazolin-4-yl)but-2-en-1-one]	> 500 nM	> 10000 nM	304 nM
CN(C)C/C=C/C(=O)N1CCN2c3ccc4ncnc(Nc5cc(F)c(Oc6ccn7ncnc7c6)cc5F)c4c3OC[C@@H]2C1 [Compound 98, (S,E)-1-(4-((4-([1,2,4]triazolo[1,5-a]pyridin-7-yloxy)-2,5-difluorophenyl)amino)-6a,7,9,10-tetrahydropyrazino[1′,2′:4,5][1,4]oxazino[2,3-f]quinazolin-8(6H)-yl)-4-(dimethylamino)but-2-en-1-one]	16.6 nM	> 10000 nM	60 nM
Cc1cc(Nc2ncnc3cc4c(cc23)N2CCN(C(=O)/C=C/CN(C)C)C[C@H]2CO4)ccc1Oc1ccn2ncnc2c1 [Compound 9, (S,E)-1-(11-((4-([1,2,4]triazolo[1,5-a]pyridin-7-yloxy)-3-methylphenyl)amino)-1,2,4a,5-tetrahydropyrazino[1′,2′:4,5][1,4]oxazino[3,2-g]quinazolin-3(4H)-yl)-4-(dimethylamino)but-2-en-1-one]	41.2 nM	1680 nM	36.1 nM
C=CC(=O)N1CCN2c3cc4c(Nc5ccc(Oc6ccn7ncnc7c6)c(C)c5)ncnc4cc3OC[C@H]2C1 [Compound 4, (R)-1-(11-((4-([1,2,4]triazolo[1,5-a]pyridin-7-yloxy)-3-methylphenyl)amino)-1,2,4a,5-tetrahydropyrazino[1′,2′:4,5][1,4]oxazino[3,2-g]quinazolin-3(4H)-yl)prop-2-en-1-one]	62.4 nM	1330 nM	14.1 nM
C=CC(=O)N1CCN2C[C@@H]1COc1c2ccc2ncnc(Nc3ccc(Oc4ccc5c(c4)ncn5C)c(C)c3)c12 [Compound 29, 1-((3R)-13-((3-methyl-4-((1-methyl-1H-benzo[d]imidazol-5-yl)oxy)phenyl)amino)-2,3,5,6-tetrahydro-4H-3,7-methano[1,4,7]oxadiazonino[2,3-f]quinazolin-4-yl)prop-2-en-1-one]	23.9 nM	2930 nM	30.7 nM
Cc1cc(Nc2ncnc3cc4c(nc23)N2CCNC[C@H]2CO4)ccc1Oc1ccn2ncnc2c1 [Compound 34, (S)—N-(4-([1,2,4]triazolo[1,5-a]pyridin-7-yloxy)-3-methylphenyl)-1,2,3,4,4a,5-hexahydropyrazino[1,2-d]pyrimido[4′,5′:5,6]pyrido[3,2-b][1,4]oxazin-11-amine]	474 nM	> 10000 nM	53.6 nM
C=CC(=O)N1CCN2c3nc4c(Nc5ccc(Oc6ccn7ncnc7c6)c(C)c5)ncnc4cc3OC[C@H]2C1 [Compound 2, (R)-1-(11-((4-([1,2,4]triazolo[1,5-a]pyridin-7-yloxy)-3-methylphenyl)amino)-1,2,4a,5-tetrahydropyrazino[1,2-d]pyrimido[4′,5′:5,6]pyrido[3,2-b][1,4]oxazin-3(4H)-yl)prop-2-en-1-one]	4.54 nM	421 nM	8.97 nM

Reference: patent US20260078135A1, “POLYCYCLIC QUINAZOLINES FOR INHIBITION OF ERBB2” (Enliven Inc., priority 2022, published 2026)
